According to US12006321B2, “Substituted pyrazolo[1,5-a]pyrimidines as apelin receptor agonists” (Sanford Burnham Prebys Medical Discovery Institute, priority 2017, dated 2024):

Biological target: T1, human apelin receptor (APJ, APLNR) (Homo sapiens, UniProt P35414)
T1 construct: host or cells: Chinese hamster ovary (CHO) cells, stably integrated receptor
T1 sequence (P35414 1-380): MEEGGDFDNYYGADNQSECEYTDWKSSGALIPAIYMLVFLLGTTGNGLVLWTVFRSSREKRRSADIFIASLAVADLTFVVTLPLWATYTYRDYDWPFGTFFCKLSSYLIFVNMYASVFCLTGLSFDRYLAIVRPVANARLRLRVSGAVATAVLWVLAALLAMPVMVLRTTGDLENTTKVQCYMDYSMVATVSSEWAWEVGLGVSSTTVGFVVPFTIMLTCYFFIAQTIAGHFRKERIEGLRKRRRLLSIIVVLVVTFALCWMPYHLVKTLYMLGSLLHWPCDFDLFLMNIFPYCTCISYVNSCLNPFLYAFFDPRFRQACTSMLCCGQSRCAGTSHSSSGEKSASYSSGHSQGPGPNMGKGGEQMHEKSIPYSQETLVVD
Assay: cell-based cAMP assay (TR-FRET) in Chinese hamster ovary cells expressing the apelin receptor
Conditions: EC50 = 50% of control (apelin-13, 1 nM) response; cAMP in CHO cells, 0.5 h incubation; read-out: Potency Category
Description: This example illustrates the biological activity of various compounds tested against the APJ receptor.
Commercially available cell lines were used to screen chemical libraries to identify compounds that potently and selectively activated the human apelin receptor. The assays disclosed herein were performed using cell lines from DiscoveX, Inc.
Biological activity was determined to the cell-based assay. This assay detects activation of the receptor by reporting on intracellular cyclic adenosine monophosphate (cAMP) level. Chinese hamster ovary cells engineered to express the stably integrated human appellant receptor (APJ, AGTRL-one, APLNR), pleaded into the wells of the microtiter plate. Cells were stimulated with […] to increase intracellular cyclic AMP. Immediately following, compounds were added to the range of final concentrations 0.0-100 μM, in DMSO (not to exceed a final DMSO concentration greater than 1% v/v), and allowed to incubate with the cells for 0.5 h. At the end of the incubation, cells were lysed to stop APJ signaling and cAMP was quantified using a commercially available competitive immunoassay kit that applies homogenous time-resolved florescence energy transfer (TR-FRET). The assay is based on the competition between a europium (Eu) chelate-labeled cAMP donor tracer and cellular cAMP for binding sites on a cAMP-specific monoclonal antibody labeled with an acceptor fluorophore. When antibodies are bound to the cAMP tracer light emissions at 320 nm stimulate the energy transfer from the donor to the acceptor, which in turn emits light at 665 nm. In the presence of competitive unlabeled cAMP (derived from the activity of the receptor or forskolin-stimulated production of cAMP), the labelled cAMP tracer is dissociated from the cAMP antibody, resulting in a loss of FRET signal. The amount of light emitted by the FRET is inversely proportional to the cAMP generated by the cell/receptor system. Potency and efficacy at APJ are reported in reference to the canonical APJ receptor agonist apelin-13 when tested at 1 nM.
Compound competency is reported as the effective concentration required to effect 50% (EC 50) of the control (apelin—13, 1 nM) response in micromole are (μM) units. Compound efficacy (% response) is reported as a percentage of the maximal apein-13 response at 1 nM (control). Potencies were calculated by fitting a four-point logistic curve to concentration response consisting of at least 10 discrete data points spanning effective range of the compounds in the cell-based assay that measures cAMP. In Table 1, the Potency Categories are A, B, C and D. Category A EC50>500 nM; Category B 200<EC50<500 nM; Category C 100<EC50<200 nM; Category D<100 nM.

`CCOC(=O)c1cc(-c2ccccc2)n2nc(C)c(-c3c(C)cccc3C)c2n1` [Compound 82, ethyl 3-(2,6-dimethylphenyl)-2-methyl-7-phenyl-8-hydropyrazolo[1,5-a]pyrimidine-5-carboxylate] and `CCOC(=O)c1cc(Nc2ccccc2)n2nc(C)c(-c3c(C)cccc3C)c2n1` [Compound 117, ethyl 3-(2,6-dimethylphenyl)-2-methyl-7-(phenylamino)-8-hydropyrazolo[1,5-a]pyrimidine-5-carboxylate] cannot be ordered by EC50: greater than 500 nM for the first, greater than 500 nM for the second.

`CCc1cc(C(=O)O)nc2c(-c3ccccc3)c(C)nn12` [Compound 34, 7-ethyl-2-methyl-3-phenyl-8-hydropyrazolo[1,5-a]pyrimidine-5-carboxylic acid] and `Cc1nn2c(C)cc(C(=O)O)nc2c1-c1ccccc1` [Compound 4, 2,7-dimethyl-3-phenyl-8-hydropyrazolo[1,5-a]pyrimidine-5-carboxylic acid] cannot be ordered by EC50: greater than 500 nM for the first, greater than 500 nM for the second.

`Cc1nn2c(C(C)C)cc(C(=O)O)nc2c1-c1cccc(Cl)c1` [Compound 32, 3-(3-chlorophenyl)-2-methyl-7-(methylethyl)-8-hydropyrazolo[1,5-a]pyrimidine-5-carboxylic acid] and `COc1cccc(-c2c(C)nn3c(C(C)C)cc(C(=O)O)nc23)c1` [Compound 22, 3-(3-methoxyphenyl)-2-methyl-7-(methylethyl)-8-hydropyrazolo[1,5-a]pyrimidine-5-carboxylic acid] cannot be ordered by EC50: greater than 500 nM for the first, greater than 500 nM for the second.

Compared with `Cc1cccc(C)c1-c1cnn2c(C(C)C)cc(C(=O)O)nc12` [Compound 53, 3-(2,6-dimethylphenyl)-7-(methylethyl)-8-hydropyrazolo[1,5-a]pyrimidine-5-carboxylic acid], `Cc1ccccc1-c1c(C)nn2c(C(C)C)cc(C(=O)O)nc12` [Compound 20, 2-methyl-7-(methylethyl)-3-(2-methylphenyl)-8-hydropyrazolo[1,5-a]pyrimidine-5-carboxylic acid] is lower in EC50: greater than 500 nM for the first, 100 to 200 nM for the second.

`Cc1cccc(C)c1-c1c(C)nn2c(N(C)C)cc(C(=O)O)nc12` [Compound 103, 7-(dimethylamino)-3-(2,6-dimethylphenyl)-2-methyl-8-hydropyrazolo[1,5-a]pyrimidine-5-carboxylic acid] and `Cc1cccc(C)c1-c1c(C)nn2c(N(C)c3ccccc3)cc(C(=O)O)nc12` [Compound 149] cannot be ordered by EC50: greater than 500 nM for the first, greater than 500 nM for the second.

`Cc1cccc(C)c1-c1c(C(=O)N(C)C)nn2c(C(C)C)cc(C(=O)O)nc12` [Compound 101, 2-(N,N-dimethylcarbamoyl)-3-(2,6-dimethylphenyl)-7-(methylethyl)-8-hydropyrazolo[1,5-a]pyrimidine-5-carboxylic acid] and `Cc1cccc(C)c1-c1c(CN(C)C)nn2c(C(C)C)cc(C(=O)O)nc12` [Compound 90, 2-[(dimethylamino)methyl]-3-(2,6-dimethylphenyl)-7-(methylethyl)-8-hydropyrazolo[1,5-a]pyrimidine-5-carboxylic acid] cannot be ordered by EC50: greater than 500 nM for the first, greater than 500 nM for the second.

`CCOC(=O)c1cc(C(C)C)n2nc(C)c(-c3c(C)cc(Cl)cc3C)c2n1` [Compound 66, ethyl 3-(4-chloro-2,6-dimethylphenyl)-2-methyl-7-(methylethyl)-8-hydropyrazolo[1,5-a]pyrimidine-5-carboxylate] and `CCOC(=O)c1cc(C(C)C)n2nc(C)c(-c3c(C)cccc3OC)c2n1` [Compound 65, ethyl 3-(6-methoxy-2-methylphenyl)-2-methyl-7-(methylethyl)-8-hydropyrazolo[1,5-a]pyrimidine-5-carboxylate] cannot be ordered by EC50: greater than 500 nM for the first, greater than 500 nM for the second.

`CCOC(=O)c1cc(N2CCOCC2)n2nc(C)c(-c3c(C)cccc3C)c2n1` [Compound 97, ethyl 3-(2,6-dimethylphenyl)-2-methyl-7-morpholin-4-yl-8-hydropyrazolo[1,5-a]pyrimidine-5-carboxylate] and `CCOC(=O)c1cc(C2CCCC2)n2nc(C)c(-c3c(C)cccc3C)c2n1` [Compound 69, ethyl 3-(2,6-dimethylphenyl)-7-cyclopentyl-2-methyl-8-hydropyrazolo[1,5-a]pyrimidine-5-carboxylate] cannot be ordered by EC50: greater than 500 nM for the first, greater than 500 nM for the second.

`CCOC(=O)c1cc(Oc2ccccc2)n2nc(C)c(-c3c(C)cccc3C)c2n1` [Compound 109, ethyl 3-(2,6-dimethylphenyl)-2-methyl-7-phenoxy-8-hydropyrazolo[1,5-a]pyrimidine-5-carboxylate] and `COC(=O)c1cc(Nc2ccc(C)cc2)n2nc(C)c(-c3c(C)cccc3C)c2n1` [Compound 134, methyl 3-(2,6-dimethylphenyl)-2-methyl-7-[(4-methylphenyl)amino]-8-hydropyrazolo[1,5-a]pyrimidine-5-carboxylate] cannot be ordered by EC50: greater than 500 nM for the first, greater than 500 nM for the second.

`CCCc1cc(C(=O)OCC)nc2c(-c3ccccc3)c(C)nn12` [Compound 35, ethyl 2-methyl-3-phenyl-7-propyl-8-hydropyrazolo[1,5-a]pyrimidine-5-carboxylate] and `Cc1nn2c(C(C)C)cc(C(N)=O)nc2c1-c1ccccc1` [Compound 14, 2-methyl-7-(methylethyl)-3-phenyl-8-hydropyrazolo[1,5-a]pyrimidine-5-carboxamide] cannot be ordered by EC50: greater than 500 nM for the first, greater than 500 nM for the second.

`COc1cccc(C)c1-c1c(C)nn2c(C(C)C)cc(C(=O)O)nc12` [Compound 76, 3-(2-methoxy-6-methylphenyl)-2-methyl-7-(methylethyl)-8-hydropyrazolo[1,5-a]pyrimidine-5-carboxylic acid] and `COc1cccc(F)c1-c1c(C)nn2c(C(C)C)cc(C(=O)O)nc12` [Compound 92, 3-(6-fluoro-2-methoxyphenyl)-2-methyl-7-(methylethyl)-8-hydropyrazolo[1,5-a]pyrimidine-5-carboxylic acid] cannot be ordered by EC50: greater than 500 nM for the first, greater than 500 nM for the second.

`Cc1cccc(C)c1-c1c(C)nn2c(Nc3ccc(OC(F)(F)F)cc3)cc(C(=O)O)nc12` [Compound 144, 3-(2,6-dimethylphenyl)-2-methyl-7-{[4-(trifluoromethoxy)phenyl]amino}-8-hydropyrazolo[1,5-a]pyrimidine-5-carboxylic acid] and `COC(=O)c1cc(Nc2ccc(OC)cc2)n2nc(C)c(-c3c(C)cccc3C)c2n1` [Compound 135, methyl 3-(2,6-dimethylphenyl)-7-[(4-methoxyphenyl)amino]-2-methyl-8-hydropyrazolo[1,5-a]pyrimidine-5-carboxylate] cannot be ordered by EC50: greater than 500 nM for the first, greater than 500 nM for the second.

`COC(=O)c1cc(Nc2ccc(C#N)cc2)n2nc(C)c(-c3c(C)cccc3C)c2n1` [Compound 138, methyl 3-(2,6-dimethylphenyl)-7-[(4-cyanophenyl)amino]-2-methyl-8-hydropyrazolo[1,5-a]pyrimidine-5-carboxylate] and `COC(=O)c1cc(N(C)c2ccc(F)cc2)n2nc(C)c(-c3c(C)cccc3C)c2n1` [Compound 148] cannot be ordered by EC50: greater than 500 nM for the first, greater than 500 nM for the second.

First: CCc1cccc(CC)c1-c1c(C)nn2c(C(C)C)cc(C(=O)O)nc12 [Compound 116]
Second: CCOC(=O)c1cc(C(C)C)n2nc(C)c(-c3ccccc3F)c2n1 [Compound 23, ethyl 3-(2-fluorophenyl)-2-methyl-7-(methylethyl)-8-hydropyrazolo[1,5-a]pyrimidine-5-carboxylate]
The EC50 of the first is lower: 200 to 500 nM for the first, greater than 500 nM for the second. The first is the more potent here.

First: CC(C)c1cc(C(=O)O)nc2c3c(nn12)CCCC3 [Compound 43, 4-(methylethyl)-5,7,8,9,10-pentahydro-5H-pyrimidino[1,2-b]indazole-2-carboxylic acid]
Second: Cc1cccc(C)c1-c1c(C)nn2c(C3CCCC3)cc(C(=O)O)nc12 [Compound 68, 3-(2,6-dimethylphenyl)-7-cyclopentyl-2-methyl-8-hydropyrazolo[1,5-a]pyrimidine-5-carboxylic acid]
The EC50 of the first is higher: greater than 500 nM for the first, 200 to 500 nM for the second. The second is the more potent here.

`Cc1cccc(C)c1-c1c(C)nn2c(C(C)C)cc(C(O)C(F)(F)F)nc12` (stereo not shown) [Compound 63, 1-[3-(2,6-dimethylphenyl)-2-methyl-7-(methylethyl)(8-hydropyrazolo[1,5-a]pyrimidin-5-yl)]-2,2,2-trifluoroethan-1-ol] gave an EC50 greater than 500 nM.
